Assay results taken from patent publication US20230416247A1, “DRUG-LIKE MOLECULES AND METHODS FOR THE THERAPEUTIC TARGETING OF MICRORNA-21” (University of Washington, priority 2020, published 2023).
Entries after “also recorded” stand apart in the source; their conditions may differ.

What was measured:
[1] = system: pre-miR-21 processing by Dicer-TRBP; experiment: Dicer/TRBP in vitro processing of pre-miR-21; assay type: biochemical, human; conditions: for inhibition of Dicer processing: pre-miR-21 compared with pre-Let7
Method: In order to further assess the biochemical activity of our compounds, processing of pre-miR-21 and pre-Let7 by Dicer-TRBP in vitro was compared. FIGS. 9A and 9B show selective response in the rate of processing under early phase reaction conditions, before significant product builds up, for pre-miR21 compared to pre-Let7.
The results are specific to the initial rates (0.25-5 min) of the reaction. […] This is inevitable because Dicer binds the product tightly. This assay and method of inhibiting miR-21 synthesis is different than typical enzymatic assays. First, the small molecule is targeting the substrate of the enzymatic assay. High affinity compounds that change the structure of the substrate may reduce processing but might not inhibit processing completely. Rather, changes in the specificity constant (kcat/Km), are a better measure of small molecule inhibition than traditional Ki's.
Dicer/TRBP. The Dicer/TRBP enzyme complex was expressed and purified using published methods and stored at −80° C. in 20 μL aliquots until needed. Briefly, the gene encoding human full-length Dicer was inserted into a modified pFastBac1 vector (Invitrogen), which has an N-terminal glutathione-S-transferase (GST) tag. The GST fusion proteins were expressed in HiFive insect cells following standard procedures and isolated by glutathione affinity chromatography using buffer A (20 mM Tris-HCl pH 8.0, 150 mM NaCl, 2 mM DTT). After on-column cleavage by Tobacco Etch Virus (TEV) protease overnight, the proteins were eluted, concentrated and loaded onto Superdex 200 GL column equilibrated in buffer A. Sequences coding for human full-length TRBP2 were cloned into a modified pET28a vector with an N-terminal GB1 tag. The clones were transformed into Rosetta 2 cells and the transformants were grown in LB media at 37° C. until the cells reached a density corresponding to an OD reading of 0.8 at 600 nm. Protein expression was induced by addition of 0.2 mM IPTG at 18° C. for 20 hours. The cells were harvested, pelleted and resuspended in 20 mM Tris-HCl pH 8.0, 500 mM NaCl, mM imidazole, with 5 mM β-ME. […]

[2] = system: pancreatic (ASPC1) cancer cell line; experiment: MTS proliferation assay, ASPC1; assay type: cell-based, human; conditions: for viability (anti-proliferative activity), MTS: as a function of time, triplicate
Source text: FIGS. 10A-10F compare anti-proliferative activity of 10 nmoles of compounds −0045 and −0052 against gastric (AGS) (FIGS. 10B and 10C, respectively) and pancreatic (ASPC1) (FIGS. 10E and 10F, respectively) cancer cell lines, as measured as a function of time and compared to palbociclib (−000) (FIGS. 10A-AGS; and 10D-ASPC1) using standard MTS assays in the indicated cell lines; results were in triplicate with reported experimental uncertainty.
FIGS. 11A-11F compare anti-proliferative activity of 5 nmoles of compounds −0045 and −0052 against gastric (AGS) (FIGS. 11B and 11C, respectively) and pancreatic (ASPC1) (FIGS. 11E and 11F, respectively) cancer cell lines, as measured as a function of time and compared to palbociclib (−000) (FIGS. 11A-AGS; and 11D-ASPC1), using standard MTS assays in the indicated cell lines; results were in triplicate with reported experimental uncertainty.
The anti-proliferative activity of compounds −0045 and −0052 in two cell lines characterized by high levels of miR-21 (gastric adenocarcinoma (AGS) and pancreatic (ASPC1) cancer origin) was determined. These experiments were conducted in a double-blind format, without knowledge of the identity or binding activity of the compounds, to avoid any unintentional bias. […] Viability in the presence of both palbociclib and compound −0052 is decreased after approximately 72-96 hrs to a statistically significant extent (data points marked with asterisks are statistically significant).
Cell line maintenance. Using the Cancer Cell Line Encyclopedia (CCLE), in-house cancer cell lines were screened to identify cancer and tissue types with varying levels of miR-21 expression. Experiments were performed using the human-derived cell lines AGS (gastric cancer) and AsPC-1 (pancreatic cancer). Cell lines were obtained from the American Type Culture Collection and maintained per instructions from the supplier. AGS were cultured in F12K medium supplemented with 10% FBS. AsPC-1 were cultured in RPMI, with 10% FBS added. All cells were kept at 37° C. in a humidified atmosphere of 5% CO2 and underwent regular mycoplasma testing. All experiments were conducted when cells were 70-80% confluent.
Proliferation assay. The impact of the compound on cellular proliferation was assessed, with 5,000 cells in each cell line seeded in replicates of 6 in a 96 well plate and treated with DMSO or with compounds. After 48 hours, cells were treated with the MTS reagent and optical density was read to generate dose-response curves.

[3] = system: PDCD4 in AGS cells; experiment: Western blot of PDCD4 in AGS cells; assay type: cell-based, human; conditions: 48 hours of incubation, relative to DMSO control, normalized to β-actin
Method: Data in FIG. 16B are reported as enhancement of PDCD4 levels, relative to DMSO control (no compound added).
Western blot analysis. Western blot analysis was conducted according to standard protocols. Briefly, proteins were collected from cells and lysed and the Bradford assay was used to measure protein concentrations. Quantification of protein expression was conducted using the image analysis software ImageJ.

SMILES | pre-miR-21 processing by DICER/TRBP ([1]; 2 μM compound vs no compound, initial rates) | inhibition of Dicer processing [1] | viability (anti-proliferative activity), MTS ([2]; ASPC1, 5 nmoles of compound) | viability (anti-proliferative activity), MTS ([2]; ASPC1, 10 nmoles of compound) | levels of PDCD4 (Western blot) ([3]; listed as −0045) | cell killing activity, MTS over 6 days ([2]; ASPC1, both concentrations tested (10 and 5 nmols), double-blind) | levels of PDCD4 (Western blot) ([3]; listed as −0052)
O=c1[nH]c(Nc2ccc(N3CCNCC3)cn2)nc2cccnc12 [Compound 25] | processing activity is visibly reduced; also recorded: visibly reduced pre-miR-21 processing | specifically inhibit Dicer processing | does not | does not | an increase was observed; also recorded: increase levels of PDCD4 | – | –
O=c1[nH]c(Nc2ccc(N3CCNCC3)cn2)nc2cnccc12 [Compound 30] | – | specifically inhibit Dicer processing | reduce the viability of both cell lines to a statistically significant extent | reduce the viability of both cell lines to a statistically significant extent | – | Cell killing activity | an increase was observed; also recorded: increase levels of PDCD4
